Test results from patent publication US20090264471A1, “Compounds, Compositions and Methods Comprising Triazole Derivatives” (Institute for OneWorld Health, priority 2008, published 2009).

Biological target: T1, CFTR (Homo sapiens, UniProt P13569)
T1 construct: results in the phosphorylation and opening of CFTR anion channels; host or cells: Human colonic T84 cells
Test: T84 assay (FLIPR membrane potential dye, forskolin/IBMX-stimulated CFTR channel activity)
Type: cell-based
Conditions: human colonic T84 cells, average of at least 2 runs unless annotated n = 1
Description: (§1) For example, Human colonic T84 cells can be acquired from the European Collection of Cell Cultures (ECACC) and grown in standard culture conditions as described by the supplier. On the day before assay 25,000 T84 cells per well are plated into standard black walled, clear bottom 384-well assay plates in standard growth medium consisting of DMEM:F12 with 10% FBS and incubated overnight. On the day of the assay the plates are washed using a standard assay buffer (HBSS with 10 mM Hepes) and incubated for 15 minutes in serum free cell culture medium before the addition of a commercially available membrane potential sensitive fluorescent dye (FLIPR Red membrane potential dye, Molecular Devices Corporation). T84 cells are incubated with the FLIPR Red membrane potential dye for 45 minutes in the presence and absence of test compound before being transferred to a commercially available fluorescence imaging plate reader (FLIPR384, Molecular Devices Corporation). Fluorescence levels are monitored continuously every second for 150 seconds; after an initial 10 second baseline, CFTR channel activity is stimulated through the addition of 10 μM forskolin in the presence of 100 μM of the phosphodiesterase inhibitor iso-butyl-methylxanthine (IBMX). Addition of the forskolin leads to the activation of intracellular adenylyl cylase 1, elevating cAMP levels and results in the phosphorylation and opening of CFTR anion channels. CFTR channel opening causes chloride ion efflux and subsequent depolarization of the cells, which is measured by an increase in fluorescence. CFTR inihibitor compounds prevent cell depolarization and the associated increase in fluorescence.
as §1, with “Human colonic” for “For example, Human colonic”, “T84 cells are acquired from” for “T84 cells can be acquired from”, “(ECACC) and are grown in” for “(ECACC) and grown in”, “fluorescence. CFTR inhibitor compounds prevent” for “fluorescence. CFTR inihibitor compounds prevent”

T1 sequence (P13569 whole entry): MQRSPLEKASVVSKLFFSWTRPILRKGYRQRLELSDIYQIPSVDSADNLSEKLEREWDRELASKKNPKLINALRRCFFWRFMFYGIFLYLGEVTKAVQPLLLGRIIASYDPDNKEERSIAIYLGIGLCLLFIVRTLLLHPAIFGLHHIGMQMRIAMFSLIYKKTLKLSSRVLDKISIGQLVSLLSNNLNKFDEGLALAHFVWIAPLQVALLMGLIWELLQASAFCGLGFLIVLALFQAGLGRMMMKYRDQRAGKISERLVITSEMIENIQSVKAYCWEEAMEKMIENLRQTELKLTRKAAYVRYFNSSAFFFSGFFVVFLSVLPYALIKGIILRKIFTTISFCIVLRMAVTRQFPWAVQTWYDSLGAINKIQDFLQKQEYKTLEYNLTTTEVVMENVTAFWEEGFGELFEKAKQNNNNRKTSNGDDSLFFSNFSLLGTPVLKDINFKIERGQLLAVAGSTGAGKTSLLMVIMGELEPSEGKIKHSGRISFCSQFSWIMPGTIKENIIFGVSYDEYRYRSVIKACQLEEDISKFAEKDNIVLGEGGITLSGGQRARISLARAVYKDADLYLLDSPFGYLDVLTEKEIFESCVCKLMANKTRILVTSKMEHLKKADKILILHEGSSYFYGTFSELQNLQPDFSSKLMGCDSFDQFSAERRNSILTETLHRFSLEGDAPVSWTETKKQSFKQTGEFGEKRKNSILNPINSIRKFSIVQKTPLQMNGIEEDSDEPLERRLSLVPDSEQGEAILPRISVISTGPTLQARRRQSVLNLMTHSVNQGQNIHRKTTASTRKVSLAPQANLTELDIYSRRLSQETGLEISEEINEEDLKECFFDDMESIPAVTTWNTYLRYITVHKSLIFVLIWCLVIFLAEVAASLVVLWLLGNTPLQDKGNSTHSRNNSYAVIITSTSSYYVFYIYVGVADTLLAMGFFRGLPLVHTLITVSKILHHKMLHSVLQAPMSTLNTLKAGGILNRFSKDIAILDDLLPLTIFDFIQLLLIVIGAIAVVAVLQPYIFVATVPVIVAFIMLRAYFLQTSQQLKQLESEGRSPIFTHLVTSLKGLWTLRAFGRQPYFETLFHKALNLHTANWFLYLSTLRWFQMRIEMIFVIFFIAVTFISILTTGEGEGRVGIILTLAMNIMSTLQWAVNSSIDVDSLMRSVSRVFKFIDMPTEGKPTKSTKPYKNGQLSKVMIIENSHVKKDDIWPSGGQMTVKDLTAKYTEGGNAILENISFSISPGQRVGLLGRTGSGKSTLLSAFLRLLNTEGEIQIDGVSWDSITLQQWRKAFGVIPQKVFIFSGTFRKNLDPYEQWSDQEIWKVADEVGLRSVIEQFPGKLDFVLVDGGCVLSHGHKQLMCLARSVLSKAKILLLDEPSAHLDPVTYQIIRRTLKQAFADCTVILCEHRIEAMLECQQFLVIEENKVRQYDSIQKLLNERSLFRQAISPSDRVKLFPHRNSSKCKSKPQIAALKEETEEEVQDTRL

| SMILES | IC50 |
| --- | --- |
| O=C(NCc1ccc(C(F)(F)F)cc1)c1n[nH]c(-c2cc(Cl)c(O)c(Cl)c2)n1 [Compound 87, 5-(3,5-dichloro-4-hydroxyphenyl)-N-(4-(trifluoromethyl)benzyl)-1H-1,2,4-triazole-3-carboxamide] | 25.1 µM |
| CN(Cc1cccc(C(F)(F)F)c1)C(=O)c1n[nH]c(-c2cc(Cl)c(O)c(Cl)c2)n1 [Compound 90, 5-(3,5-dichloro-4-hydroxyphenyl)-N-methyl-N-(3-(trifluoromethyl)benzyl)-1H-1,2,4-triazole-3-carboxamide] | 24.1 µM |
| O=C(NCc1ccc(F)c(F)c1)c1n[nH]c(-c2cc(Cl)c(O)c(Cl)c2)n1 [Compound 84, 5-(3,5-dichloro-4-hydroxyphenyl)-N-(3,4-difluorobenzyl)-1H-1,2,4-triazole-3-carboxamide] | 15.6 µM |
| O=C(NCc1cccc(OC(F)(F)F)c1)c1n[nH]c(-c2cc(Cl)c(O)c(Cl)c2)n1 [Compound 86, 5-(3,5-dichloro-4-hydroxyphenyl)-N-(3-(trifluoromethoxy)benzyl)-1H-1,2,4-triazole-3-carboxamide] | 22.2 µM |
| O=C(NCc1ccccc1C(F)(F)F)c1n[nH]c(-c2cc(Cl)c(O)c(Cl)c2)n1 [Compound 85, 5-(3,5-dichloro-4-hydroxyphenyl)-N-(2-(trifluoromethyl)benzyl)-1H-1,2,4-triazole-3-carboxamide] | 18 µM |
| CN(Cc1ccc(Cl)c(Cl)c1)C(=O)c1n[nH]c(-c2cc(Cl)c(O)c(Cl)c2)n1 [Compound 95, 5-(3,5-Dichloro-4-hydroxyphenyl)-N-(3,4-dichlorobenzyl)-N-methyl-1H-1,2,4-triazole-3-carboxamide] | 7.92 µM |
| O=C(NCc1ccc(OC(F)(F)F)cc1)c1n[nH]c(-c2cc(Cl)c(O)c(Cl)c2)n1 [Compound 94, 5-(3,5-dichloro-4-hydroxyphenyl)-N-(4-(trifluoromethoxy)benzyl)-1H-1,2,4-triazole-3-carboxamide] | 9.11 µM |
| O=C(c1nc(-c2cc(Br)c(O)c(Br)c2)n[nH]1)N1CCC(Cc2ccccc2)CC1 [Compound 80, (4-Benzylpiperidin-1-yl)(3-(3,5-dibromo-4-hydroxyphenyl)-1H-1,2,4-triazol-5-yl)methanone] | 10.5 µM |
| CN(Cc1ccc(Cl)cc1)C(=O)c1n[nH]c(-c2cc(Cl)c(O)c(Cl)c2)n1 [Compound 93, N-(4-chlorobenzyl)-5-(3,5-dichloro-4-hydroxyphenyl)-N-methyl-1H-1,2,4-triazole-3-carboxamide] | 25 µM |
| CN(Cc1ccc(C(C)(C)C)cc1)C(=O)c1n[nH]c(-c2cc(Cl)c(O)c(Cl)c2)n1 [Compound 96, N-(4-tert-butylbenzyl)-5-(3,5-dichloro-4-hydroxyphenyl)-N-methyl-1H-1,2,4-triazole-3-carboxamide] | 7.53 µM |

Second part, the compound after the results:

| IC50 | SMILES |
| --- | --- |
| 6.9 µM | O=C(c1n[nH]c(-c2cc(Cl)c(O)c(Cl)c2)n1)N1CCN(c2cccc(C(F)(F)F)c2)CC1 [Compound 83, (5-(3,5-dichloro-4-hydroxyphenyl)-1H-1,2,4-triazol-3-yl)(4-(3-(trifluoromethyl)phenyl)piperazin-1-yl)methanone] |
| 6.93 µM | O=C(c1nc(-c2cc(Br)c(O)c(Br)c2)n[nH]1)N1CCN(c2cccc(C(F)(F)F)c2)CC1 [Compound 79, (3-(3,5-dibromo-4-hydroxyphenyl)-1H-1,2,4-triazol-5-yl)(4-(3-(trifluoromethyl)phenyl)piperazin-1-yl)methanone] |
| 5.25 µM | O=C(NCc1cc(F)c(F)c(F)c1)c1n[nH]c(-c2cc(Cl)c(O)c(Cl)c2)n1 [Compound 89, 5-(3,5-dichloro-4-hydroxyphenyl)-N-(3,4,5-trifluorobenzyl)-1H-1,2,4-triazole-3-carboxamide] |
| 1.51 µM | O=C(NCc1ccc(Oc2ccccc2)cc1)c1nc(-c2cc(Br)c(O)c(Br)c2)n[nH]1 [Compound 81, 3-(3,5-dibromo-4-hydroxyphenyl)-N-(4-phenoxybenzyl)-1H-1,2,4-triazole-5-carboxamide] |
| 6.8 µM | O=C(NCc1cc(Cl)cc(Cl)c1)c1n[nH]c(-c2cc(Cl)c(O)c(Cl)c2)n1 [Compound 97, 5-(3,5-dichloro-4-hydroxyphenyl)-N-(3,5-dichlorobenzyl)-1H-1,2,4-triazole-3-carboxamide] |
| 7.33 µM | O=C(NC(c1ccccc1)c1ccccc1)c1n[nH]c(-c2cc(Cl)c(O)c(Cl)c2)n1 [Compound 88, N-benzhydryl-5-(3,5-dichloro-4-hydroxyphenyl)-1H-1,2,4-triazole-3-carboxamide] |
| 1.57 µM | O=C(NCc1ccc(Cl)c(Cl)c1)c1n[nH]c(-c2cc(Cl)c(O)c(Cl)c2)n1 [Compound 91, 5-(3,5-dichloro-4-hydroxyphenyl)-N-(3,4-dichlorobenzyl)-1H-1,2,4-triazole-3-carboxamide] |
| 3.23 µM | O=C(NC(c1ccccc1)c1ccccc1)c1nc(-c2cc(Br)c(O)c(Br)c2)n[nH]1 [Compound 78, N-benzhydryl-3-(3,5-dibromo-4-hydroxyphenyl)-1H-1,2,4-triazole-5-carboxamide] |
| 3.28 µM | O=C(NCc1ccc(Oc2ccccc2)cc1)c1n[nH]c(-c2cc(Cl)c(O)c(Cl)c2)n1 [Compound 92, 5-(3,5-dichloro-4-hydroxyphenyl)-N-(4-phenoxybenzyl)-1H-1,2,4-triazole-3-carboxamide] |
| 7.05 µM | O=C(c1n[nH]c(-c2cc(Cl)c(O)c(Cl)c2)n1)N1CCC(Cc2ccccc2)CC1 [Compound 82, (4-benzylpiperidin-1-yl)(5-(3,5-dichloro-4-hydroxyphenyl)-1H-1,2,4-triazol-3-yl)methanone] |
